The values that follow come from US20210317141A1, “OXOPYRIDO[1,2-A]PYRIMIDINE COMPOUNDS FOR THE TREATMENT AND PROPHYLAXIS OF BACTERIAL INFECTION” (Hoffmann-La Roche Inc., priority 2018, published 2021).

Series [1] concerns E. coli (BW25113). Kind of series: 50% growth inhibitory concentration (IC50) determination assay, E. coli. The class given is cell-based. The note with it: Escherichia coli, growth inhibition, Iso-Sensitest broth, OD 600 nm over 16 h, 35±2° C., read-out: IC50 (μM) E. coli K12 BW25113. The procedure:
(§1) The in vitro antimicrobial activity of the compounds against E. coli (BW25113, obtained from Coli Genetic Stock Center, #7636) and K. pneumoniae (ATCC10031) was determined according to the following procedure:
(§2) The assay used a 10-points Iso-Sensitest broth medium to measure quantitatively the in vitro activity of the compounds against E. coli BW25113 and K. pneumoniae ATCC 10031.
(§3) Stock compounds in DMSO were serially two-fold diluted (range from 50 to 0.097 μM final concentration) in 384 wells microtiter plates and inoculated with 49 μL the bacterial suspension in Iso-Sensitest broth medium to have a final cell concentration of ˜5×10^5 CFU/mL in a final volume/well of 50 μL/well. Microtiter plates were incubated at 35±2° C.
(§4) Bacterial cell growth was determined with the measurement of optical density at k=600 nm each 20 minutes over a time course of 16 h.
(§5) Growth inhibition was calculated during the logarithmic growth of the bacterial cells with determination of the concentration inhibiting 50% (IC50) of the growth.

The subject of series [2] is E. coli (ATCC 25922). The series can be described thus: Minimal Inhibitory Concentration (MIC) assay. The class given is cell-based. Conditions: Escherichia coli, ATCC25922; CAMHB, 20 hours at 35° C.; read-out: MIC (μg/mL) E. coli ATCC 25922. As to the method:
The in vitro potency of compounds to inhibit E. coli (ATCC 25922) growth was assessed by MIC (Minimal Inhibitory Concentration) assay. Samples were prepared from 10 mM DMSO stock solutions. After serial 2-fold dilution in DMSO in a master plate (Greiner, Cat No: 651201), 180 μL sterile distilled water was added to 20 μL each aliquot of the samples. Then […], diluted compounds were transferred into a new assay plate (Costar, 3599).
The growth medium […] Mueller Hinton Broth (CAMHB) was prepared by adding the 20 mg per liter CaCl2) and 20 mg per liter MgCl2 into the MHB medium (Jianglai Company, sterilized).
Vials of each of the test microorganisms were maintained frozen in the vapor phase of a liquid nitrogen freezer. Took out the bacteria E. coli ATCC 25922 (KWIKSTIK, 0335K) from liquid nitrogen freezer, thawed it in room temperature, and diluted the bacterial in the CAMHB medium to achieve a final inoculum of 5×10^5 CFU/mL. 90 μL CAMHB with bacteria was dispensed to the assay plate and pipetted 5 times.
Then the assay plates were incubated for 20 hours at 35° C. in ambient air. Following incubation, the MIC (μg/mL), the lowest concentration of drug that inhibits visible growth of the microorganism was read and recorded throw the microscope.

The nature of series [3]: Lyophilisation solubility assay (LYSA). The class given is physicochemical. Conditions: aqueous buffer, thermodynamic from solid; 0.05 M phosphate buffer, pH 6.5; * = detection limit. As to the method:
The solubility of compounds of present invention was assessed by LYSA assay. Samples were prepared in duplicate from 10 mM DMSO stock solutions (20 μL) diluted in 30 μL pure DMSO. After evaporation of DMSO with a centrifugal vacuum evaporator, the residue was dissolved in 0.05 M phosphate buffer (150 μL, pH 6.5), stirred for one hour and shook for two hours. After one night, the solution was filtered using a microtiter filter plate. Then the filtrate and its 1/10 dilution were analyzed by HPLC-UV. In addition, a four-point calibration curve was prepared from the 10 mM stock solutions and used for the solubility determination of the compounds.

A short description of series [4]: Cytotoxicity assay (HepG2, CellTiter-Blue). The class given is cell-based. Conditions: human, HepG2 cells, 3 days treatment. The procedure: The cytotoxicity of compounds of present invention was assessed by HepG2 assay. HepG2 cells (ATCC HB-8065™) were seeded into 96-well plates (1.2×10^4 cells per well) and treated with compounds for 3 days, cell viability was measured at day 3 post compound treatment using the CellTiter-Blue® Cell Viability Assay (Promega, Cat. No. G8082). 20 μL of Cell titer blue buffer were added to each well of the cells, incubated for 3 hours at 37° C., and the fluorescence value was measured by a plate reader (Molecular Device SpectraMax M2). The CC50 value of each compound is plotted with GraphPad Prism using four parameter logistic equation.
In general terms: Resazurin is reduced to fluorescent resorufin, in cell work by metabolically active cells.

Series [5] deals with K. pneumoniae (ATCC10031). Kind of series: 50% growth inhibitory concentration (IC50) determination assay, K. pneumoniae. The class given is cell-based. The note with it: Klebsiella pneumoniae, growth inhibition, Iso-Sensitest broth, OD 600 nm over 16 h, * = detection limit. The procedure: as §1, §2, §3, §4, §5

≈ marks a conversion by molar mass, not a printed value.

In general, IC50 refers to the concentration needed to halve the response being measured. Broadly, the thermodynamic solubility is solubility found after equilibrating the solid with the medium. For orientation: CC50 means the concentration at which the toxic effect on the cells reaches its halfway point. Take `CNc1cc(F)c(F)c2c1[nH]c1ncc(-c3ccc4ncc(C(=O)O)c(=O)n4c3)c(N(C)C)c12` [Example 1.01, 7-[4-(Dimethylamino)-5,6-difluoro-8-(methylamino)-9H-pyrido[2,3-b]indol-3-yl]-4-oxo-pyrido[1,2-a]pyrimidine-3-carboxylic Acid]: in series [1], the IC50 was determined as 0.906 µM. Further, the MIC in series [2] worked out at 0.0183 µg/mL (≈ 0.0394 µM). The same molecule gave a thermodynamic solubility in series [3] of 30 µg/mL (≈ 64.6 µM). Moreover, the CC50 at 3 days in series [4] is 45.9 µM.
For `CNc1cc(F)cc2c1[nH]c1ncc(-c3cc(C)c4ncc(C(=O)O)c(=O)n4c3)c(N(C)C)c12` [Example 1.05, 7-[4-(Dimethylamino)-6-fliioro-8-(methylamino)-9H-pyrido[2,3-b]indol-3-yl]-9-methyl-4-oxo-pyrido[1,2-a]pyrimidine-3-carboxylic acid], the IC50 is 2.06 µM in series [1] and 0.221 µM in series [5]. The MIC in series [2] turned out to be 0.576 µg/mL (≈ 1.25 µM). The 50% cytotoxic concentration (CC50) at 3 days in series [4] came out at 34 µM.
On the same counts, the results for `CNc1cc(F)c(F)c2c1[nH]c1ncc(-c3ccc4ncc(C(=O)O)c(=O)n4c3)c(N(C)CC(F)(F)F)c12` [Example 1.09, 7-(5,6-Difluoro-4-(methyl(2,2,2-trifluoroethyl)amino)-8-(methylamino)-9H-pyrido[2,3-b]indol-3-yl)-4-oxo-4H-pyrido[1,2-a]pyrimidine-3-carboxylic acid] are 2.57 µM, 0.284 µM, 0.808 µg/mL (≈ 1.52 µM) and 33.5 µM.
In the case of `CNc1c(F)c(F)cc2c1[nH]c1ncc(-c3ccc4ncc(C(=O)O)c(=O)n4c3)c(N(C)C)c12` [Example 1.12, 7-(4-(Dimethylamino)-6,7-difluoro-8-(methylamino)-9H-pyrido[2,3-b]indol-3-yl)-4-oxo-4H-pyrido[1,2-a]pyrimidine-3-carboxylic], the values for the IC50 in series [1] and in series [5] were 0.442 µM and at most 0.098 µM, respectively. Besides, in series [2], the MIC was found to be 0.0212 µg/mL (≈ 0.0456 µM). This molecule also had a CC50 at 3 days in series [4] of 29.9 µM.
On to `CNc1cc(F)c(F)c2c1[nH]c1ncc(-c3cc(CN(C)C)c4ncc(C(=O)O)c(=O)n4c3)c(N3CCOCC3)c12` [Example 1.14, 7-(5,6-Difluoro-8-(methylamino)-4-morpholino-9H-pyrido[2,3-b]indol-3-yl)-9-((dimethylamino)methyl)-4-oxo-4H-pyrido[1,2-a]pyrimidine-3-carboxylic acid], for which the IC50 came out at 8.58 µM in series [1] and 0.197 µM in series [5]. Besides, the thermodynamic solubility in series [3] came out at 315 µg/mL (≈ 559 µM). Further, the CC50 at 3 days in series [4] was over 100 µM.
With `CNc1cc(F)c(F)c2c1[nH]c1ncc(-c3ccc4ncc(C(=O)O)c(=O)n4c3)c(N3CCC(F)(CN(C)C)C3)c12` (stereo not shown) [Example 1.18, 7-(4-(3-((Dimethylamino)methyl)-3-fluoropyrrolidin-1-yl)-5,6-difluoro-8-(methylamino)-9H-pyrido[2,3-b]indol-3-yl)-4-oxo-4H-pyrido[1,2-a]pyrimidine-3-carboxylic acid], in series [2], the MIC is 0.398 µg/mL (≈ 0.704 µM). Further, the solubility (thermodynamic) in series [3] is 200 µg/mL (≈ 354 µM). In series [4], this molecule returned a CC50 at 3 days of over 100 µM.
As for `CNc1cc(F)cc2c1[nH]c1ncc(-c3ccc4ncc(C(=O)O)c(=O)n4c3)c(N3CCC(CN(C)C4CC4)C3)c12` (stereo not shown) [Example 1.21, 7-(4-(3-((cyclopropyl(methyl)amino)methyl)pyrrolidin-1-yl)-6-fluoro-8-(methylamino)-9H-pyrido[2,3-b]indol-3-yl)-4-oxo-4H-pyrido[1,2-a]pyrimidine-3-carboxylic acid], the half-maximal inhibitory concentration (IC50) in series [1] was determined as 4.78 µM; in series [5], 0.155 µM. Moreover, the MIC in series [2] was 0.392 µg/mL (≈ 0.706 µM). Also, in series [3], the thermodynamic solubility was determined as 230 µg/mL (≈ 414 µM).
In turn, `CNc1c(F)c(F)cc2c1[nH]c1ncc(-c3ccc4ncc(C(=O)O)c(=O)n4c3)c(N3CCC[C@H]3CN(C)C)c12` [Example 1.26, (S)-7-(4-(2-((Dimethylamino)methyl)pyrrolidin-1-yl)-6,7-difluoro-8-(methylamino)-9H-pyrido[2,3-b]indol-3-yl)-4-oxo-4H-pyrido[1,2-a]pyrimidine-3-carboxylic acid] showed a solubility (thermodynamic) in series [3] of over 770 µg/mL. The CC50 at 3 days in series [4] was over 100 µM.
In the case of `CCNc1cc(F)cc2c1[nH]c1ncc(-c3ccn4c(=O)c(C(=O)O)cnc4c3)c(-n3ccc(C(F)(F)F)n3)c12` [Example 1.31, 8-[8-(Ethylamino)-6-fluoro-4-[3-(trifluoromethyl)pyrazol-1-yl]-9H-pyrido[2,3-b]indol-3-yl]-4-oxo-pyrido[1,2-a]pyrimidine-3-carboxylic acid], the CC50 at 3 days in series [4] is 30.8 µM.
Turning to `CNc1cc(F)cc2c1[nH]c1ncc(-c3ccc4ncc(C(=O)O)c(=O)n4c3)c(C#N)c12` [Example 1.34, 7-[4-Cyano-6-fluoro-8-(methylamino)-9H-pyrido[2,3-b]indol-3-yl]-4-oxo-pyrido[1,2-a]pyrimidine-3-carboxylic acid], the MIC in series [2] came to 0.364 µg/mL (≈ 0.85 µM). For the same molecule, the cytotoxic concentration (CC50) at 3 days in series [4] is over 100 µM.
For the molecule `CNc1cc(F)c(F)c2c1[nH]c1ncc(-c3cc(CN4CCOCC4)c4ncc(C(=O)O)c(=O)n4c3)c(N(C)C)c12` [Example 2.01, 7-[4-(Dimethylamino)-5,6-difluoro-8-(methylamino)-9H-pyrido[2,3-b]indol-3-yl]-9-(morpholinomethyl)-4-oxo-pyrido[1,2-a]pyrimidine-3-carboxylic Acid], the IC50 in series [1] is 0.523 µM; in series [5], at most 0.098 µM. Moreover, the MIC in series [2] is 0.0223 µg/mL (≈ 0.0396 µM). This molecule came in with a solubility (thermodynamic) in series [3] of 36 µg/mL (≈ 63.9 µM).
Turning to `CNc1cc(F)c(F)c2c1[nH]c1ncc(-c3cc(CN(C)CCOC)c4ncc(C(=O)O)c(=O)n4c3)c(N(C)C)c12` [Example 2.02, 7-[4-(Dimethylamino)-5,6-difluoro-8-(methylamino)-9H-pyrido[2,3-b]indol-3-yl]-9-[[2-methoxyethyl(methyl)amino]methyl]-4-oxo-pyrido[1,2-a]pyrimidine-3-carboxylic acid], the IC50 is 0.738 µM in series [1] and at most 0.098 µM in series [5]. For the same molecule, the MIC in series [2] was found to be 0.0996 µg/mL (≈ 0.176 µM). The thermodynamic solubility in series [3] stood at 255 µg/mL (≈ 451 µM).
On the same counts, the results for `CNc1cc(F)c(F)c2c1[nH]c1ncc(-c3cc(CN4CCCC4)c4ncc(C(=O)O)c(=O)n4c3)c(N(C)C)c12` [Example 2.03, 7-[4-(Dimethylamino)-5,6-difluoro-8-(methylamino)-9H-pyrido[2,3-b]indol-3-yl]-4-oxo-9-(pyrrolidin-1-ylmethyl)pyrido[1,2-a]pyrimidine-3-carboxylic acid] are 0.748 µM, at most 0.098 µM, 0.194 µg/mL (≈ 0.354 µM) and 51 µg/mL (≈ 93.1 µM).
On to `CNc1cc(F)c(F)c2c1[nH]c1ncc(-c3cc(CN4CCOCC4)c4ncc(C(=O)O)c(=O)n4c3)c(N3CCCC3)c12` [Example 2.04, 7-[5,6-Difluoro-8-(methylamino)-4-pyrrolidin-1-yl-9H-pyrido[2,3-b]indol-3-yl]-9-(morpholinomethyl)-4-oxo-pyrido[1,2-a]pyrimidine-3-carboxylic acid], for which the values for the IC50 in series [1] and in series [5] were 1.21 µM and 0.22 µM, respectively. Also, in series [2], the MIC is 0.0432 µg/mL (≈ 0.0733 µM). Moreover, in series [3], the thermodynamic solubility worked out at 91 µg/mL (≈ 154 µM).
On to `CNc1cc(F)cc2c1[nH]c1ncc(-c3ccc4ncc(C(=O)O)c(=O)n4c3)c(N3CCC(F)(F)C3)c12` [Example 2.05, 7-(4-(3,3-Difluoropyrrolidin-1-yl)-6-fluoro-8-(methylamino)-9H-pyrido[2,3-b]indol-3-yl)-4-oxo-4H-pyrido[1,2-a]pyrimidine-3-carboxylic acid], for which it took 31.8 µM to reach half-maximal cytotoxicity in series [4] (CC50 at 3 days).
